Patent publication US20140079836A1, “METHODS AND COMPOSITIONS FOR ALTERING HEALTH, WELLBEING, AND LIFESPAN” (LifeSpan Extension, LLC, priority 2008, published 2014)

System: Custom Array II Genes
Experiment: Custom Array II gene expression, antioxidant alone or + UVB
Type: cell-based
Conditions: + UVB

With COC1=C(OC)C(=O)C(CCCCCCCCCCO)=C(C)C1=O [Idebenone, 6-(10-hydroxydecyl)-2,3-dimethoxy-5-methyl-1,4-benzoquin-one] the “ACE (NM_000789) Expression” value was −1.1, the “ACTB (NM_001101) Expression” value was −1.1 and the “APOE (NM_000041) Expression” value was −1.2. For the same compound, the “BAX (NM_004324) Expression” value was 1.3, the “BCL2 (NM_000633) Expression” value was 1.6 and the “BCL2L1 (NM_138578) Expression” value was 1.0. For the same compound, the “BMP2 (NM_001200) Expression” value was −1.7, the “CASP2 (NM_032982) Expression” value was −1.3 and the “CASP9 (NM_001229) Expression” value was 1.0. For the same compound, the “CCL4L1 (NM_001001435) Expression” value was 1.2, the “CDKN2A (NM_000077) Expression” value was −1.0 and the “CLK1 (NM_004071) Expression” value was −1.1. The “COL1A1 (NM_000088) Expression” value was −1.0, the “COL3A1 (NM_000090) Expression” value was −1.2 and the “COX1 (NP_536845) Expression” value was 1.5. The “CREBBP (NM_004380) Expression” value was −1.1, the “CRP (NM_000567) Expression” value was 1.0 and the “CYP19A1 (NM_000103) Expression” value was 1.0. For the same compound, the “DDC (NM_000790) Expression” value was 1.0, the “DUSP2 (NM_004418) Expression” value was 1.1 and the “EGF (NM_001963) Expression” value was 1.0. For the same compound, the “EGR2 (NM_000399) Expression” value was 1.7, the “FOS (NM_005252) Expression” value was −1.4 and the “FOXO3 (NM_001455) Expression” value was −1.3. The “GADPH (NM_002046) Expression” value was −1.2, the “GCH1 (NM_000161) Expression” value was −1.7 and the “GH1 (NM_000515) Expression” value was 1.3. For the same compound, the “GPX1 (NM_000581) Expression” value was −1.1, the “HBEGF (NM_001945) Expression” value was 1.8 and the “HGDC (SA_00105) Expression” value was 1.1. The “HLA-DRA (NM_019111) Expression” value was 1.0, the “HMOX1 (NM_002133) Expression” value was 1.0 and the “HPRT1 (NM_000194) Expression” value was 1.3. The “HSPA1A (NM_005345) Expression” value was −1.3, the “HSPA1B (NM_005346) Expression” value was −1.3 and the “HSPA1L (NM_005527) Expression” value was −1.1. The “HSPA6 (NM_002155) Expression” value was −1.8, the “IFI44 (NM_006417) Expression” value was 1.0 and the “IGF1 (NM_000618) Expression” value was 1.1. For the same compound, the “IGF2 (NM_000612) Expression” value was 1.0, the “IL1A (NM_000575) Expression” value was 1.0 and the “IL6 (NM_000600) Expression” value was 1.5. The “IL8 (NM_000584) Expression” value was 1.0, the “IL10 (NM_000572) Expression” value was 1.1 and the “IL11 (NM_000641) Expression” value was 1.1. For the same compound, the “IL33 (NM_033439) Expression” value was 2.3, the “IMMP1L (NM_144981) Expression” value was 1.2 and the “JUN (NM_002228) Expression” value was −1.1. For the same compound, the “KIT (NM_000222) Expression” value was 1.4, the “KL (NM_004795) Expression” value was 1.0 and the “KRAS (NM_004985) Expression” value was 1.0. For the same compound, the “MAPK14 (NM_001315) Expression” value was −1.4, the “MMP1 (NM_002421) Expression” value was 1.0 and the “NADSYN1 (NM_018161) Expression” value was −1.1. For the same compound, the “NEIL1 (NM_024608) Expression” value was 1.0, the “NFKB1 (NM_003998) Expression” value was −1.1 and the “NOS1 (NM_000620) Expression” value was 1.2. For the same compound, the “NOS2 (NM_000625) Expression” value was 1.0, the “NOS3 (NM_000603) Expression” value was −1.0 and the “PARP1 (NM_001618) Expression” value was 1.0. The “PARP2 (NM_005484) Expression” value was 1.2, the “PARP3 (NM_005485) Expression” value was 1.1 and the “PARP4 (NM_006437) Expression” value was 4.7. The “PARP9 (NM_031458) Expression” value was −1.1, the “PDGFRL (NM_006207) Expression” value was 1.2 and the “POT1 (NM_015450) Expression” value was 1.2. For the same compound, the “PPARG (NM_015869) Expression” value was −1.2, the “PPARGC1 (NM_013261) Expression” value was −1.2 and the “PPC (SA_00103) Expression” value was 1.0. For the same compound, the “PTGS2 (NM_000963) Expression” value was 1.3, the “RAP1A (NM_002884) Expression” value was −1.2 and the “RTC (SA_00104) Expression” value was 1.2. The “S100A7 (NM_002963) Expression” value was 1.3, the “SERPINB (NM_002575) Expression” value was 1.0 and the “SHC1 (NM_003029) Expression” value was −1.1. The “SIRT1 (NM_012238) Expression” value was 1.1, the “SIRT2 (NM_012237) Expression” value was −1.1 and the “SIRT3 (NM_012239) Expression” value was −1.2. The “SIRT4 (NM_012240) Expression” value was 1.0, the “SOD1 (NM_000454) Expression” value was −1.1 and the “SOD2 (NM_000636) Expression” value was 1.0. For the same compound, the “TEP1 (NM_007110) Expression” value was 1.1, the “TERF2 (NM_005652) Expression” value was −1.1 and the “TERT (NM_198255) Expression” value was −1.3. The “TGFB1 (NM_000660) Expression” value was −1.2, the “TIMM22 (NM_013337) Expression” value was −1.1 and the “TIMP3 (NM_000362) Expression” value was −1.3. The “TINF2 (NM_012461) Expression” value was 1.1, the “TNF (NM_000594) Expression” value was −2.6 and the “TOMM40 (NM_006114) Expression” value was −1.8. For the same compound, the “TP53 (NM_000546) Expression” value was −1.3, the “TPP1 (NM_000391) Expression” value was 1.0 and the “UBE2S (NM_014501) Expression” value was −1.3. For the same compound, the “VEGFA (NM_003376) Expression” value was −1.3.
